Experimental data reported in the supplement of paper PMC5908809.

What was measured:
[1] = tested on: normal NK cells expanded with K562-aAPC; test: drug sensitivity score (DSS) (DSS units); higher = more sensitive; extreme values may be limits of the assay; conditions: 72 h; IL-2 2.5 ng/mL
Procedure: (§1)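 Drug sensitivity and resistance testing on K562-aAPC-expanded normal NK cells: 5 concentrations (10-fold steps over a 10,000-fold range), 72 h at 37 °C, viability by CellTiter-Glo normalised to DMSO and benzethonium chloride controls; DSS from the fitted curve.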

[2] = tested on: NK-YS (IL-2 2.5 ng/mL); test: as above; conditions: 72 h
[3] = tested on: KHYG-1 (IL-2 2.5 ng/mL); test: as above; conditions: 72 h
[4] = tested on: normal primary NK cells, pool 1 (3 donors), resting (IL-2 0 ng/mL); test: as above; conditions: 72 h
[5] = tested on: normal primary NK cells, pool 1 (3 donors) (IL-2 2.5 ng/mL); test: as above; conditions: 72 h
[6] = tested on: YT (IL-2 2.5 ng/mL); test: as above; conditions: 72 h
[7] = tested on: DERL-7 (IL-2 2.5 ng/mL); test: as above; conditions: 72 h
[8] = tested on: KAI3 (IL-2 2.5 ng/mL); test: as above; conditions: 72 h
[9] = tested on: NKL (IL-2 2.5 ng/mL); test: as above; conditions: 72 h
[10] = tested on: SNK-6 (IL-2 2.5 ng/mL); test: as above; conditions: 72 h
[11] = tested on: IMC-1 (IL-2 20 ng/mL); test: as above; conditions: 72 h
[12] = tested on: normal primary NK cells, pool 3 (3 donors) (IL-2 2.5 ng/mL); test: as above; conditions: 72 h
[13] = tested on: NK-92 (IL-2 2.5 ng/mL); test: as above; conditions: 72 h
[14] = tested on: normal primary NK cells, pool 2 (3 donors) (IL-2 2.5 ng/mL); test: as above; conditions: 72 h
[15] = tested on: NK-YS (IL-2 2.5 ng/mL); test: percent inhibition of viability; higher = more inhibition; conditions: 72 h
[16] = tested on: KHYG-1 (IL-2 2.5 ng/mL); test: as above; conditions: 72 h
[17] = tested on: normal primary NK cells, pool 1 (3 donors), resting (IL-2 0 ng/mL); test: as above; conditions: 72 h
[18] = tested on: normal primary NK cells, pool 1 (3 donors) (IL-2 2.5 ng/mL); test: as above; conditions: 72 h
[19] = tested on: YT (IL-2 2.5 ng/mL); test: as above; conditions: 72 h
[20] = tested on: DERL-7 (IL-2 2.5 ng/mL); test: as above; conditions: 72 h
[21] = tested on: KAI3 (IL-2 2.5 ng/mL); test: as above; conditions: 72 h
[22] = tested on: NKL (IL-2 2.5 ng/mL); test: as above; conditions: 72 h
[23] = tested on: SNK-6 (IL-2 2.5 ng/mL); test: as above; conditions: 72 h
[24] = tested on: IMC-1 (IL-2 20 ng/mL); test: as above; conditions: 72 h
[25] = tested on: normal primary NK cells, pool 3 (3 donors) (IL-2 2.5 ng/mL); test: as above; conditions: 72 h
[26] = tested on: NK-92 (IL-2 2.5 ng/mL); test: as above; conditions: 72 h
[27] = tested on: normal primary NK cells, pool 2 (3 donors) (IL-2 2.5 ng/mL); test: as above; conditions: 72 h
[28] = tested on: normal NK cells expanded with K562-aAPC; test: as above; conditions: 72 h, IL-2 2.5 ng/mL
Procedure: as §1

CN(C)CCN1C(=O)c2cccc3cc(N)cc(c23)C1=O [Amonafide] (max concentration tested 10000 nM)
Conditions | drug sensitivity score
[1] | 9.65
[2] | 10
[3] | 8.07
[4] | 6.59
[5] | 4.95
[6] | 7.63
[7] | 8.69
[8] | 10.4
[9] | 9.52
[10] | 8.74
[11] | 8.17
[12] | 6.87
[13] | 9.91
[14] | 6.19

percent inhibition of viability [%]
Conditions | 1 nM | 10 nM | 100 nM | 1000 nM | 10000 nM
[15] | 2.33 | 5.61 | 10.8 | 30.8 | 102
[16] | 6.52 | 2.23 | 12.9 | 14.8 | 103
[17] | 6.85 | -15.8 | -2.6 | 9.89 | 89.3
[18] | -3.82 | -10.6 | -8.88 | -6.27 | 97.5
[19] | 3.19 | 6.52 | 7.92 | 11.9 | 104
[20] | -0.77 | 2.31 | -12.6 | 19.6 | 101
[21] | 12.7 | 9.96 | 3.38 | 35.1 | 103
[22] | -9.44 | 0.79 | -4.03 | 33.1 | 89.8
[23] | 21.2 | 8.85 | 20.2 | 23.6 | 99.5
[24] | 1.06 | 3.1 | 5.35 | 15.8 | 100
[25] | 5.44 | -1.16 | 1.98 | 8.95 | 98.1
[26] | 17.3 | 3.38 | 20.4 | 29.9 | 103
[27] | -8.57 | -3.21 | 0.92 | 6.12 | 95
[28] | 3.02 | 8.13 | 5.46 | 27.6 | 101
